Values joined by “and” are separate entries in the source; they are usually repeats but may differ in a detail not shown here. Equal values may be shown once. Read-outs that look alike come from different tables or passages of the source. Each block holds one molecule with its values, some of them ahead of it.
Legend:
LNCaP cells = assay: Internalization into LNCaP cells, relative cellular uptake to ([^125I]I-BA)KuE; type: cell-based; settings: c = 1.0 nM ^177Lu-labeled inhibitor, 37° C., 60 min, corrected for non-specific binding (10 μM 2-PMPA), mean ± SD (n = 3)
Experimental: PSMA-positive LNCAP cells (300265; Cell Lines Service GmbH) were cultivated in Dulbecco modified Eagle medium/Nutrition Mixture F-12 (1/1) (DMEM-F12, Biochrom) supplemented with fetal calf serum (FCS) (10%, Biochrom) and kept at 37° C. in a humidified CO2 atmosphere (5%). One day (24 h±2 h) prior to all experiments with LNCaP cells, the cultivated cells were harvested using a mixture of trypsin/ethylendiaminetetraacetate (0.05%/0.02%) and PBS and centrifuged. After centrifugation, the supernatant was disposed and the cell pellet resuspended in culture medium. Afterwards, cells were counted with a hemocytometer (Neubauer) and seeded in 24-well plates.
Subsequent to the removal of the culture medium, the cells were washed once with DMEM-F12-solution (500 μL, 5% BSA) and left to equilibrate for at least 15 min at 37° C. in DMEM-F12-solution (200 μL, 5% BSA). Afterwards, each well was treated with either DMEM-F12-solution (25 μL, 5% BSA) or 2-PMPA-solution (25 μL, 100 μm) for blockade. […] The experiment was terminated by placing the 24-well plate on ice for 3 min and the consecutive removal of the medium. Each well was rinsed with HBSS (250 μL) and the fractions from these first two steps combined, representing the amount of free radioligand. Removal of surface bound activity was accomplished by incubation of the cells with ice-cold 2-PMPA-solution (250 μL, 10 μm in PBS) for 5 min and subsequent rinsing with ice-cold PBS (250 μL). The internalized activity was determined through incubation of the cells in NaOH (250 μL, 1.0 m) and the combination with the fraction of the subsequent washing step with again NaOH (250 μL, 1.0 m). Each experiment (control and blockade) was performed in triplicate for each time point. Free, surface bound and internalized activity was quantified in a γ-counter.

HSA = target: T1, HSA (Homo sapiens, UniProt P02768); assay: HSA binding on Chiralpak HSA column; type: in vitro ADME
T1 construct: purchased Daicel Chemical Industries / Chiral Technologies Europe (Illkirch, France)
Experimental: HSA binding experiments were performed as previously described. […] For each run, 10 μL of the solution containing the inhibitor was injected into the RP-HPLC system and the retention time measured. […] Non-linear regression was established with OriginPro 2016G.

[1] = Lipophilicity, logP in n-octanol/PBS of radiolabeled PSMA inhibitors; type: physicochemical; settings: pH 7.4
Experimental: The radiolabeled PSMA inhibitor (0.5 to 1.0 MBq) dissolved in PBS (500 μL, pH=7.4), was added to n-octanol (500 μL) in a reaction vial (1.5 mL), which was rigorously vortexed for 3 min (n=6). For quantitative phase separation, the mixture was centrifuged at 6,000 g for 5 min (Biofuge 15, Heraus Sepatech, Osterode, Germany). The activity from samples of each phase (100 μL) were measured in a γ-counter to obtain the log P(o/w) value.

LNCaP-tumor xenograft = assay: Biodistribution in LNCaP-tumor xenograft bearing CB-17 SCID mice; type: in vivo
Experimental: All animal experiments were carried out in accordance with the general animal welfare regulations in Germany (Deutsches Tierschutzgesetz, approval #55.2-1-54-2532-71-13). For the tumor model, LNCaP cells (approx. 10^7 cells) were suspended in serum-free DMEM-F12 medium and Matrigel (1/1; v/v) (BD Biosciences, Germany) and inoculated onto the right shoulder of male, 6 to 8 weeks old CB-17 SCID mice (Charles River Laboratories, Sulzfeld, Germany). Animals were used after the tumor size reached 4 to 8 mm in diameter for experiments.

[2] = male, CB-17 SCID, mouse, in vivo, 24 h
[3] = after logarithmic plotting and calibration (n = 1)
[4] = distribution coefficient in n-octanol/PBS, radiolabeled inhibitor, mean ± SD (n = 6), read-out: logP

T1 sequence (P02768 25-609): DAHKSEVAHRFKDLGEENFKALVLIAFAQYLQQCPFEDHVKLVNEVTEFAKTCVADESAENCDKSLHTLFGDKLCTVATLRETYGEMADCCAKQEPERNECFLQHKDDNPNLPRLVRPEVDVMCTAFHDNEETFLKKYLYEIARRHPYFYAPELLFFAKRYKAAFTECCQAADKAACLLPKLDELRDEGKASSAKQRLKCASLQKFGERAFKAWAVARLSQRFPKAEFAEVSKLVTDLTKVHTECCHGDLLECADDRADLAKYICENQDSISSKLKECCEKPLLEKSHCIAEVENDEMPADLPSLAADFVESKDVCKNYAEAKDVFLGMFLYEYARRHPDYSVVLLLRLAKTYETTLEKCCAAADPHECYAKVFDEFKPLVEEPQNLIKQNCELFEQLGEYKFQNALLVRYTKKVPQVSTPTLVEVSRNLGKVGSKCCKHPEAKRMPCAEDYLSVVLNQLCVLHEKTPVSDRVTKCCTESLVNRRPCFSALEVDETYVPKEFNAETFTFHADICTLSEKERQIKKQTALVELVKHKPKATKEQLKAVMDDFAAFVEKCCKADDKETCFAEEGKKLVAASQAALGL

HSA (albumin binding) (HSA; human, 0.5 mg/mL): 98.2%
logP [1]: -4.13 ± 0.09
adrenal g. (LNCaP-tumor xenograft; [2]): 0.32 ± 0.15 % ID/g
blood (LNCaP-tumor xenograft; [2]): 0.008 ± 0.001 % ID/g
bone (LNCaP-tumor xenograft; [2]): 0.04 ± 0.02 % ID/g
brain (LNCaP-tumor xenograft; [2]): 0.01 ± 0.002 % ID/g
heart (LNCaP-tumor xenograft; [2]): 0.07 ± 0.01 % ID/g
intestine (LNCaP-tumor xenograft; [2]): 0.27 ± 015 % ID/g
liver (LNCaP-tumor xenograft; [2]): 0.38 ± 0.14 % ID/g
lung (LNCaP-tumor xenograft; [2]): 0.05 ± 0.01 % ID/g
muscle (LNCaP-tumor xenograft; [2]): 0.01 ± 0.001 % ID/g
pancreas (LNCaP-tumor xenograft; [2]): 0.15 ± 0.15 % ID/g
spleen (LNCaP-tumor xenograft; [2]): 0.27 ± 0.15 % ID/g
stomach (LNCaP-tumor xenograft; [2]): 0.20 ± 0.10 % ID/g
t/blood (LNCaP-tumor xenograft; [2]): 1786.3
t/kidney (LNCaP-tumor xenograft; [2]): 0.4
t/liver (LNCaP-tumor xenograft; [2]): 37.6
t/muscle (LNCaP-tumor xenograft; [2]): 1429.0
tumor (LNCaP-tumor xenograft; mouse, in vivo): highest tumor uptake
SMILES: O=C(O)CC[C@H](NC(=O)N[C@@H](CCC(=O)NC(CCCNC(=O)C[C@@H](NC(=O)c1cc(C(=O)O)cc(C(=O)O)c1)C(=O)NCCCC[C@@H](NC(=O)[C@@H](Cc1ccc2ccccc2c1)NC(=O)[C@@H](Cc1ccc(O)cc1)NC(=O)[C@H](Cc1ccc2ccccc2c1)NC(=O)CCC(C(=O)O)N1CCN(CC(=O)O)CCN(CC(=O)O)CCN(CC(=O)O)CC1)C(=O)O)C(=O)O)C(=O)O)C(=O)O (stereo partly shown) [PSMA-71, DOTAGA-2-Nal-y-2-nal-k(d[N^5-orn-C^4-EuE]-TMA)]
Internalization (LNCaP cells; listed as [^177Lu]PSMA-71): 206.8±1.7%
Internalization (LNCaP cells; listed as [^nat/177Lu]PSMA-71): 206.8 ± 1.7%

SMILES: Nc1ccc(C[C@H](NC(=O)CCC(C(=O)O)N2CCN(CC(=O)O)CCN(CC(=O)O)CCN(CC(=O)O)CC2)C(=O)N[C@H](Cc2ccc(O)cc2)C(=O)N[C@H](Cc2ccc3ccccc3c2)C(=O)N[C@H](CCCCNC(=O)[C@@H](CC(=O)NCCCC(NC(=O)CC[C@H](NC(=O)N[C@@H](CCC(=O)O)C(=O)O)C(=O)O)C(=O)O)NC(=O)c2ccc([N+](=O)[O-])cc2[N+](=O)[O-])C(=O)O)cc1 (stereo partly shown) [PSMA-61, DOTAGA-F(4-NH2)y-2-nal-k(d[N^5-orn-C^4-EuE]-2,4-DNBA)]
Internalization (LNCaP cells): 359.5 ± 22.6%
HSA (albumin binding) (HSA; [3]): 63.3%
logP [1, 4]: -4.07 ± 0.05
tumor (LNCaP-tumor xenograft; 1 h p.i., ^177Lu-labeled, n = 4): 8.00±0.75 % ID/g
tumor (LNCaP-tumor xenograft; 24 h p.i., ^177Lu-labeled, n = 4): 7.70±1.35 % ID/g

SMILES: O=C(O)CC[C@H](NC(=O)N[C@@H](CCC(=O)NC(CCCNC(=O)c1ccc(NC(=O)CC[C@@H](NC(=O)[C@@H](Cc2ccc3ccccc3c2)NC(=O)[C@@H](Cc2ccc(O)cc2)NC(=O)[C@H](CNC(=O)CCC(C(=O)O)N2CCN(CC(=O)O)CCN(CC(=O)O)CCN(CC(=O)O)CC2)NC(=O)c2ccc([N+](=O)[O-])cc2[N+](=O)[O-])C(=O)O)cc1)C(=O)O)C(=O)O)C(=O)O (stereo partly shown) [PSMA-65, 2,4-DNBA-Dap(DOTAGA)y-2-nal-e(Abz-N^5-orn-C^4-EuE)]
Internalization (LNCaP cells; listed as [^nat/177Lu]PSMA-65): 340.2 ± 19.9% and 340.2 ± 18.9%
HSA (albumin binding) (HSA; after logarithmic plotting and calibration (n = 1), listed as [^nat/177Lu]PSMA-65): 98.7%
logP [1, 4]: -4.15 ± 0.08

HSA (albumin binding) (HSA; [3]): 57.7%
logP [1, 4]: -4.21 ± 0.08
SMILES: O=C(O)CC[C@H](NC(=O)N[C@@H](CCC(=O)NC(CCCNC(=O)CCC(=O)NCCCC[C@@H](NC(=O)[C@@H](Cc1ccc2ccccc2c1)NC(=O)[C@@H](Cc1ccc(O)cc1)NC(=O)CCC(C(=O)O)N1CCN(CC(=O)O)CCN(CC(=O)O)CCN(CC(=O)O)CC1)C(=O)O)C(=O)O)C(=O)O)C(=O)O (stereo partly shown) [PSMA-46, DOTAGA-y-2-nal-k(Suc-N^5-orn-C^4-EuE)]
Internalization (LNCaP cells): 216.2 ± 9.2%

SMILES: Nc1ccc(C[C@H](NC(=O)CCC(C(=O)O)N2CCN(CC(=O)O)CCN(CC(=O)O)CCN(CC(=O)O)CC2)C(=O)N[C@H](Cc2ccc(O)cc2)C(=O)N[C@H](Cc2ccc3ccccc3c2)C(=O)N[C@H](CCC(=O)Nc2ccc(C(=O)NCCCC(NC(=O)CC[C@H](NC(=O)N[C@@H](CCC(=O)O)C(=O)O)C(=O)O)C(=O)O)cc2)C(=O)O)cc1 (stereo partly shown) [PSMA-60, DOTAGA-F(4-NH2)y-2-nal-e(Abz-N^5-orn-C^4-EuE)]
Internalization (LNCaP cells): 267.4 ± 7.9%
logP [1]: -3.85 ± 0.13

Reference: patent publication US11497819B2, “PSMA ligands for imaging and endoradiotherapy” (priority 2017, dated 2022)
